From ChEMBL document CHEMBL1201862, “PubChem BioAssay data set” (2004)
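Interpolation was linear, between the two tested concentrations surrounding the appropriate level; five concentrations were tested over 48 hours in 96-well plates. Abbreviation: GI50, concentration required for 50% inhibition of growth.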 The source made the active and inactive calls. Cut-off read from the data, not from the text of the source: active = GI50 up to about 1.1 µM and inactive = higher.

Experiments:
Experiment in all cases: NCI anticancer screen, dose series, 48 h
OVCAR-3 = tested on: OVCAR-3
UACC-62 = tested on: UACC-62
Malme-3M = tested on: Malme-3M
786-0 = tested on: 786-0
COLO 205 = tested on: COLO 205
SR = tested on: SR
HL-60 = tested on: HL-60
UACC-257 = tested on: UACC-257
HOP-62 = tested on: HOP-62
MOLT-4 = tested on: MOLT-4
NCI-H23 = tested on: NCI-H23
HCT-15 = tested on: HCT-15
SF-539 = tested on: SF-539
U-251 = tested on: U-251
OVCAR-5 = tested on: OVCAR-5
HCC 2998 = tested on: HCC 2998
CAKI-1 = tested on: CAKI-1
SNB-19 = tested on: SNB-19
RPMI-8226 = tested on: RPMI-8226

SMILES	GI50 (OVCAR-3)	GI50 (UACC-62)	GI50 (Malme-3M)	GI50 (786-0)	GI50 (COLO 205)	GI50 (SR)	GI50 (HL-60)	GI50 (UACC-257)	GI50 (HOP-62)	GI50 (MOLT-4)	GI50 (NCI-H23)	GI50 (HCT-15) [µM]	GI50 (SF-539)	GI50 (U-251)	GI50 (OVCAR-5)	GI50 (HCC 2998)	GI50 (CAKI-1)	GI50 (SNB-19)	GI50 (RPMI-8226)
Cc1ccc(/C=C/C(=O)c2ccc([N+](=O)[O-])cc2)cc1	> 100 µM (inactive)	> 100 µM (inactive)	> 100 µM (inactive)	> 100 µM (inactive)	> 100 µM (inactive)	79.1 µM (inactive)	90.6 µM (inactive)	> 100 µM (inactive)	> 100 µM (inactive)	> 100 µM (inactive)	30.9 µM (inactive)	> 100	> 100 µM (inactive)	21.2 µM (inactive)	> 100 µM (inactive)	> 100 µM (inactive)	> 100 µM (inactive)	> 100 µM (inactive)	
O=[N+]([O-])c1cccc2nccc(NCCCO)c12	14.6 µM (inactive)	8.57 µM (inactive)	10.2 µM (inactive)	17.7 µM (inactive)	3.55 µM (inactive)	7.66 µM (inactive)	11.6 µM (inactive)	11.4 µM (inactive)	17.5 µM (inactive)	13.9 µM (inactive)	12.5 µM (inactive)	8.11	14.5 µM (inactive)	14.1 µM (inactive)	20.1 µM (inactive)	13.2 µM (inactive)	13.8 µM (inactive)	25.1 µM (inactive)	13.6 µM (inactive)
COC1(OC)CCC2(C)OC(c3ccccc3)C1O2 (centres undefined)	> 100 µM (inactive)	> 100 µM (inactive)	> 100 µM (inactive)	> 100 µM (inactive)	> 100 µM (inactive)	> 100 µM (inactive)	> 100 µM (inactive)	> 100 µM (inactive)	> 100 µM (inactive)	> 100 µM (inactive)	> 100 µM (inactive)	> 100	> 100 µM (inactive)	> 100 µM (inactive)	> 100 µM (inactive)	> 100 µM (inactive)	> 100 µM (inactive)	> 100 µM (inactive)	> 100 µM (inactive)
Cc1ccc(NC(=O)/C(CC(=O)c2c[n+]([O-])c3ccccc3[n+]2[O-])=N\NC(=O)C[n+]2ccccc2)cc1	> 100 µM (inactive)	> 100 µM (inactive)	> 100 µM (inactive)	> 100 µM (inactive)	> 100 µM (inactive)	> 100 µM (inactive)	35 µM (inactive)	> 100 µM (inactive)	> 100 µM (inactive)	> 100 µM (inactive)		> 100	> 100 µM (inactive)	> 100 µM (inactive)	> 100 µM (inactive)	> 100 µM (inactive)	> 100 µM (inactive)	> 100 µM (inactive)	> 100 µM (inactive)
O=C1c2cccc3c2C(=O)c2c(cccc21)OCCOCCOCCOCCO3	> 100 µM (inactive)	> 100 µM (inactive)	> 100 µM (inactive)			14.2 µM (inactive)	74.5 µM (inactive)	> 100 µM (inactive)	> 100 µM (inactive)	31.5 µM (inactive)	> 100 µM (inactive)	> 100	> 100 µM (inactive)	> 100 µM (inactive)	> 100 µM (inactive)	> 100 µM (inactive)	96.4 µM (inactive)	> 100 µM (inactive)	55.2 µM (inactive)
Cc1nc(-n2nc(-c3ccccc3)cc2-c2ccccc2)sc1C(=O)/C=C/c1ccc(Cl)c(Cl)c1	15.9 µM (inactive)	4.89 µM (inactive)	32.4 µM (inactive)	15.7 µM (inactive)	28.7 µM (inactive)	17.2 µM (inactive)	14 µM (inactive)	25.8 µM (inactive)	21.9 µM (inactive)	11.8 µM (inactive)	49.2 µM (inactive)	15.9	18.3 µM (inactive)	11.6 µM (inactive)	18.8 µM (inactive)	24.7 µM (inactive)	24.8 µM (inactive)	16.3 µM (inactive)	
